Results on 24 compounds are retold here after US20110201818A1, “POLO-LIKE KINASE INHIBITORS” (TAKEDA PHARMACEUTICAL COMPANY LIMITED, priority 2007, published 2011).

In the experiment the target is T1, human PLK1 (Homo sapiens, UniProt P53350).
T1 construct: FLAG (DYKDDDDK) (N); made in house; host or cells: Sf21 insect cells, recombinant baculovirus (pFASTBAC1, Bac-to-Bac)
T1 sequence (P53350 with tags, fused parts or gaps): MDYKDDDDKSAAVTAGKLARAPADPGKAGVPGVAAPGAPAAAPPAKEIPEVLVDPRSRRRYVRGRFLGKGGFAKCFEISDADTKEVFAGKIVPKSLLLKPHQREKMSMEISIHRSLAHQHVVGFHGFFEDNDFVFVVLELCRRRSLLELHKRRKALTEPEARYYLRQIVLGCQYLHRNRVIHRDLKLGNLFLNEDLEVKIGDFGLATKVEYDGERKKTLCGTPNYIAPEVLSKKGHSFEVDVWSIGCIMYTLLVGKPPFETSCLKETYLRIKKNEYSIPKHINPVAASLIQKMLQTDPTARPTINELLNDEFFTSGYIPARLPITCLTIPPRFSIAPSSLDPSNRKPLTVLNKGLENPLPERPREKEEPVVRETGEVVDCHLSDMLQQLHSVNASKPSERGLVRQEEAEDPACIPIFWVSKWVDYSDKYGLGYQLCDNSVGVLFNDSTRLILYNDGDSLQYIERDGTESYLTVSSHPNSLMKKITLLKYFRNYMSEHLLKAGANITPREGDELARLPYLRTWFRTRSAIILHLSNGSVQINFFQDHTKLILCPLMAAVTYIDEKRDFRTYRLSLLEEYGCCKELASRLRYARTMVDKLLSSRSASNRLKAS
As to the kind of experiment: PLK1 in vitro enzymatic activity assay (phosphorylation of alpha casein by recombinant PLK1). The format is biochemical. As to conditions: recombinant FLAG-tagged PLK1, alpha casein substrate, 500 nmol/L ATP, 40 min at room temperature; read-out: pIC50 (PLK1) (converted). As to the method:
PCR was performed using the vector as a template. […] After XbaI and XhoI digestion of the PCR product, the fragment was subcloned into pFASTBAC1 (Invitrogen, USA). Recombinant baculoviruses were prepared according to the procedure of the Bac-to-Bac baculovirus expression system (Invitrogen, USA). Sf21 cells were purchased from Invitrogen and grown in Sf-900 II SFM medium containing 10% fetal bovine serum, 50 μg/mL gentamicin and 0.1% pluronic F-68 (Invitrogen, USA) at 28° C. For preparation of PLK1 enzyme, Sf21 cells were infected with recombinant baculoviruses and cultured at 28° C. for 72 h.
The inhibition of PLK1 by the compounds was determined with the following assay that measures the phosphorylation of alpha casein by recombinant PLK1. Kinase reactions were performed at room temperature for 40 min in the kinase reaction buffer (25 mmol/L HEPES, pH 7.5, 10 mmol/L magnesium acetate, 1 mmol/L dithiothreitol) containing 50 ng PLK1 enzyme, 0.1 μCi [γ-^32P]ATP, 500 nmol/L ATP and 3 μg alpha casein (MP Biomedicals Inc., USA) in a final volume of 50 μL. The incubation was terminated by the addition of 10% trichloroacetic acid (Wako, Japan). Phosphorylated proteins were filtrated in GF/C filter plates (Packard, USA) with a Cell harvester (Packard, USA) and washed out free [γ-^32P]-ATP with 250 mmol/L phosphoric acid. Then, the plates were air dried for 60 min at 45° C., followed by the addition of 20 μL of MicroScint-O (Packard, USA). The radioactivity was counted by a Top-count scintillation counter (Packard, USA).
As for `COc1cc(C(=O)NC2CN(C)C2)ccc1Nc1ncc2c(n1)N(C1CCCCC1)CC(F)(F)C(=O)N2C` [Compound 35, 4-(9-Cyclohexyl-7,7-difluoro-5-methyl-6-oxo-6,7,8,9-tetrahydro-5H-pyrimido[4,5-b][1,4]diazepin-2-ylamino)-3-methoxy-N-(1-methylazetidin-3-yl)benzamide], the IC50 is at most 2 nM.

On to `COc1cc(C(=O)NC2CCN(CC(N)=O)CC2)ccc1Nc1ncc2c(n1)N(C1CCCC1)CC(F)(F)C(=O)N2C` [Compound 114], for which the IC50 is above 2 nM.

As for `CN1C(=O)C(F)(F)CN(C2CCCC2)c2nc(Nc3ccc4c(c3)NC(=O)CO4)ncc21` [Compound 18, 6-(9-cyclopentyl-7,7-difluoro-5-methyl-6-oxo-6,7,8,9-tetrahydro-5H-pyrimido[4,5-b][1,4]diazepin-2-ylamino)-2H-benzo[b][1,4]oxazin-3(4H)-one], the IC50 was above 2 nM.

On to `COc1cc(C(=O)N2CCN(CC3CC3)CC2)c(F)cc1Nc1ncc2c(n1)N(C1CCCC1)CC(F)(F)C(=O)N2C` [Compound 135, 9-cyclopentyl-2-(4-(4-(cyclopropylmethyl)piperazine-1-carbonyl)-5-fluoro-2-methoxyphenylamino)-7,7-difluoro-5-methyl-8,9-dihydro-5H-pyrimido[4,5-b][1,4]diazepin-6(7H)-one], for which the IC50 was above 2 nM.

Turning to `CN(C)CCOc1ccc(Nc2ncc3c(n2)N(C2CCCC2)CC(F)(F)C(=O)N3C)cc1` [Compound 17, 9-cyclopentyl-2-(4-(2-(dimethylamino)ethoxy)phenylamino)-7,7-difluoro-5-methyl-8,9-dihydro-5H-pyrimido[4,5-b][1,4]diazepin-6(7H)-one], the IC50 was above 2 nM.

`COc1cc(C(N)=O)ccc1Nc1ncc2c(n1)N(C1CCCCC1)CC(F)(F)C(=O)N2C` [Compound 58, 4-(9-cyclohexyl-7,7-difluoro-5-methyl-6-oxo-6,7,8,9-tetrahydro-5H-pyrimido[4,5-b][1,4]diazepin-2-ylamino)-3-methoxybenzamide]: the IC50 was at most 2 nM.

Turning to `COc1cc(C(=O)NC2CCCN(C)CC2)ccc1Nc1ncc2c(n1)N(C1CCCC1)CC(F)(F)C(=O)N2C` (stereo not drawn) [Compound 15, 4-(9-cyclopentyl-7,7-difluoro-5-methyl-6-oxo-6,7,8,9-tetrahydro-5H-pyrimido[4,5-b][1,4]diazepin-2-ylamino)-3-methoxy-N-(1-methylazepan-4-yl)benzamide], the IC50 is at most 2 nM.

`COc1ccc(F)cc1Nc1ncc2c(n1)N(C1CCCC1)CC(F)(F)C(=O)N2C` [Compound 120, 9-Cyclopentyl-7,7-difluoro-2-(5-fluoro-2-methoxyphenylamino)-5-methyl-8,9-dihydro-5H-pyrimido[4,5-b][1,4]diazepin-6(7H)-one]: the IC50 is above 2 nM.

Regarding `COc1cc(C(=O)NC2CCN(C)CC2)ccc1Nc1ncc2c(n1)N(C1CCCC1)CC(F)(C(F)(F)F)C(=O)N2C` (stereo not drawn) [Compound 85, 4-(9-cyclopentyl-7-fluoro-5-methyl-6-oxo-7-(trifluoromethyl)-6,7,8,9-tetrahydro-5H-pyrimido[4,5-b][1,4]diazepin-2-ylamino)-3-methoxy-N-(1-methylpiperidin-4-yl)benzamide], the IC50 is above 2 nM.

As for `COc1cc(C(=O)N[C@H]2CCCNC2)ccc1Nc1ncc2c(n1)N(C1CCCC1)CC(F)(F)C(=O)N2C` [Compound 9, (S)-4-(9-cyclopentyl-7,7-difluoro-5-methyl-6-oxo-6,7,8,9-tetrahydro-5H-pyrimido[4,5-b][1,4]diazepin-2-ylamino)-3-methoxy-N-(piperidin-3-yl)benzamide], the IC50 is at most 2 nM.

`COc1cc(C(=O)N[C@@H]2CCCNC2)c(F)cc1Nc1ncc2c(n1)N(C1CCCC1)CC(F)(F)C(=O)N2C` [Compound 119, (R)-4-(9-cyclopentyl-7,7-difluoro-5-methyl-6-oxo-6,7,8,9-tetrahydro-5H-pyrimido[4,5-b][1,4]diazepin-2-ylamino)-2-fluoro-5-methoxy-N-(piperidin-3-yl)benzamide]: the IC50 was above 2 nM.

`Cc1cc(C(=O)NC2CCN(C)CC2)ccc1Nc1ncc2c(n1)N(C1CCCC1)CC(F)(F)C(=O)N2C` [Compound 26, 4-(9-Cyclopentyl-7,7-difluoro-5-methyl-6-oxo-6,7,8,9-tetrahydro-5H-pyrimido[4,5-b][1,4]diazepin-2-ylamino)-3-methyl-N-(1-methylpiperidin-4-yl)benzamide]: the IC50 is above 2 nM.

With `COc1cc(C(=O)NC2CCN(CC(=O)N(C)C)CC2)ccc1Nc1ncc2c(n1)N(C1CCCC1)CC(F)(F)C(=O)N2C` [Compound 115, 4-(9-cyclopentyl-7,7-difluoro-5-methyl-6-oxo-6,7,8,9-tetrahydro-5H-pyrimido[4,5-b][1,4]diazepin-2-ylamino)-N-(1-(2-(dimethylamino)-2-oxoethyl)piperidin-4-yl)-3-methoxybenzamide], the IC50 was above 2 nM.

`CCN1CC(NC(=O)c2ccc(Nc3ncc4c(n3)N(C3CCCC3)CC(F)(F)C(=O)N4C)c(OC)c2)C1` [Compound 128, 4-(9-cyclopentyl-7,7-difluoro-5-methyl-6-oxo-6,7,8,9-tetrahydro-5H-pyrimido[4,5-b][1,4]diazepin-2-ylamino)-N-(1-ethylazetidin-3-yl)-3-methoxybenzamide]: the IC50 was at most 2 nM.

In the case of `COc1cc(C(=O)N[C@@H]2CCCC[C@@H]2O)ccc1Nc1ncc2c(n1)N(C1CCCCC1)CC(F)(F)C(=O)N2C` (racemic) [Compound 47, 4-(9-cyclohexyl-7,7-difluoro-5-methyl-6-oxo-6,7,8,9-tetrahydro-5H-pyrimido[4,5-b][1,4]diazepin-2-ylamino)-N-((cis)-2-hydroxycyclohexyl)-3-methoxybenzamide], the IC50 was at most 2 nM.

Consider `COc1cc(C(=O)NN(C)C)ccc1Nc1ncc2c(n1)N(C1CCCCC1)CC(F)(F)C(=O)N2C` [Compound 61, 4-(9-cyclohexyl-7,7-difluoro-5-methyl-6-oxo-6,7,8,9-tetrahydro-5H-pyrimido[4,5-b][1,4]diazepin-2-ylamino)-3-methoxy-N′,N′-dimethylbenzohydrazide], for which the IC50 was at most 2 nM.

As for `CN1C(=O)C(F)(F)CN(C2CCCC2)c2nc(Nc3ccc4[nH]ccc4c3)ncc21` [Compound 20, 2-(1H-Indol-5-ylamino)-9-cyclopentyl-7,7-difluoro-5-methyl-8,9-dihydro-5H-pyrimido[4,5-b][1,4]diazepin-6(7H)-one], the IC50 was above 2 nM.

As to `COc1cc(C(=O)NC2CCN(C(=O)CN3CCCC3)CC2)ccc1Nc1ncc2c(n1)N(C1CCCC1)CC(F)(F)C(=O)N2C` [Compound 12, 4-(9-cyclopentyl-7,7-difluoro-5-methyl-6-oxo-6,7,8,9-tetrahydro-5H-pyrimido[4,5-b][1,4]diazepin-2-ylamino)-3-methoxy-N-(1-(2-(pyrrolidin-1-yl)acetyl)piperidin-4-yl)benzamide], the IC50 is above 2 nM.

As to `CN1C(=O)C(F)(F)CN(C2CCCC2)c2nc(Nc3ccc4c(c3)NC(=O)C4)ncc21` [Compound 19, 9-cyclopentyl-7,7-difluoro-5-methyl-2-(2-oxoindolin-6-ylamino)-8,9-dihydro-5H-pyrimido[4,5-b][1,4]diazepin-6(7H)-one], the IC50 was above 2 nM.

In the case of `COc1cc(C(=O)NC2CC2)ccc1Nc1ncc2c(n1)N(C1CCCCC1)CC(F)(F)C(=O)N2C` [Compound 76, 4-(9-cyclohexyl-7,7-difluoro-5-methyl-6-oxo-6,7,8,9-tetrahydro-5H-pyrimido[4,5-b][1,4]diazepin-2-ylamino)-N-cyclopropyl-3-methoxybenzamide], the IC50 is at most 2 nM.

On to `COc1cc(C(=O)NC2CN(C(C)C)C2)ccc1Nc1ncc2c(n1)N(C1CCCC1)CC(F)(F)C(=O)N2C` [Compound 129, 4-(9-cyclopentyl-7,7-difluoro-5-methyl-6-oxo-6,7,8,9-tetrahydro-5H-pyrimido[4,5-b][1,4]diazepin-2-ylamino)-N-(1-isopropylazetidin-3-yl)-3-methoxybenzamide], for which the IC50 was at most 2 nM.

For the compound `COc1cc(C(=O)NN2CCCCC2)ccc1Nc1ncc2c(n1)N(C1CCCCC1)CC(F)(F)C(=O)N2C` [Compound 64, 4-(9-cyclohexyl-7,7-difluoro-5-methyl-6-oxo-6,7,8,9-tetrahydro-5H-pyrimido[4,5-b][1,4]diazepin-2-ylamino)-3-methoxy-N-(piperidin-1-yl)benzamide], the IC50 was at most 2 nM.

`COc1cc(C(=O)NC[C@@H](C)O)ccc1Nc1ncc2c(n1)N(C1CCCCC1)CC(F)(F)C(=O)N2C` [Compound 62, (R)-4-(9-cyclohexyl-7,7-difluoro-5-methyl-6-oxo-6,7,8,9-tetrahydro-5H-pyrimido[4,5-b][1,4]diazepin-2-ylamino)-N-(2-hydroxypropyl)-3-methoxybenzamide]: the IC50 was at most 2 nM.

For the compound `COc1cc(C(=O)NC2CCN(C)CC2)ccc1Nc1ncc2c(n1)N(C1CCCC1)CC(C)(F)C(=O)N2C` (stereo not drawn) [Compound 87, 4-(9-cyclopentyl-7-fluoro-5,7-dimethyl-6-oxo-6,7,8,9-tetrahydro-5H-pyrimido[4,5-b][1,4]diazepin-2-ylamino)-3-methoxy-N-(1-methylpiperidin-4-yl)benzamide], the IC50 was at most 2 nM.
